From patent publication US20220062319A1, “COMBINATION IN THE TREATMENT OF NONTUBERCULOUS MYCOBACTERIAL DISEASES” (priority 2019, published 2022)
Values after ≈ are worked out from the molar mass of the structure shown. Where two headings read alike, the source gives them in different places.

Columns and labels:
Mycobacterium avium = test: REMA MIC and MBC, M. avium; format: cell-based; conditions: M. avium clinical isolates (×4), one line per isolate; for MIC: REMA
Mycobacterium xenopi = test: REMA MIC, control strain; format: cell-based; conditions: 168 h, control strain M. xenopi (×1), 7H9, 7 days
[1] = tested on: other mycobacterial species; test: organism not typed; format: cell-based
M. kansasii = test: Bedaquiline MIC, M. kansasii; format: cell-based; conditions: Mycobacterium kansasii, n=1, read-out: MIC Median
M. smegmatis = test: Bedaquiline MIC, M. smegmatis; format: cell-based
M. marinum = test: Bedaquiline MIC, M. marinum; format: cell-based; conditions: Mycobacterium marinum, n=1, read-out: MIC Median
M. ulcerans = test: Bedaquiline MIC, M. ulcerans; format: cell-based; conditions: Mycobacterium ulcerans
Mycobacterium simiae = test: REMA MIC and MBC, M. simiae; format: cell-based; conditions: M. simiae clinical isolates (×2), one line per isolate; for MIC: REMA
[2] = in vivo; cited from earlier work
Mycobacterium marinum = test: REMA MIC and MBC, M. marinum; format: cell-based
M. fortuitum = test: Bedaquiline MIC, M. fortuitum; format: cell-based
Mycobacterium kansasii = test: REMA MIC and MBC, M. kansasii; format: cell-based
M. bovis = test: microbe, parasite or virus in culture; format: cell-based; conditions: Mycobacterium tuberculosis variant bovis, read-out: MIC Median
Mycobacterium chimaera = test: REMA MIC and MBC, M. chimaera; format: cell-based; conditions: Mycobacterium intracellulare, M. chimaera clinical isolates (×3), one line per isolate; for MIC: REMA
M. abscessus = test: Bedaquiline MIC, M. abscessus; format: cell-based; conditions: Mycobacteroides abscessus
[3] = tested on: NTM clinical isolates (slow grower mycobacteria); test: MBC determination, NTM clinical isolates overall; format: cell-based; conditions: MBC = lowest concentration killing 100% of the bacteria
Method: The MBC test allows determination of the minimum concentration of an agent necessary to achieve a bactericidal effect. The MBC was determined once the MIC was determined previously. To perform the MBC, the dilution representing the MIC and at least two of the more concentrated test product dilutions were plated and enumerated to determine viable CFU/ml. […] NTM clinical isolates used for this study were isolated from patients. In total, there were 18 isolates (in addition to the control strain): mycobacterium avium (x4 isolates), mycobacterium intracellulare (x4), mycobacterium chimaera (x3), mycobacterium kansasii (x2), mycobacterium ulcerans (x2), mycobacterium simiae (x2) and mycobacterium marinum (x1). […] MBC was considered the lowest concentration at which the bedaquiline kills 100% of the bacteria.

[4] = tested on: Mycobacterium intracellulare; test: REMA MIC and MBC, M. intracellulare; format: cell-based; conditions: M. intracellulare clinical isolates (×4), one line per isolate; for MIC: REMA
[5] = tested on: M. avium/M. intracellulare (MAC); test: Bedaquiline MIC, MAC; format: cell-based

`COc1nc2ccc(Br)cc2cc1[C@@H](c1ccccc1)[C@@](O)(CCN(C)C)c1cccc2ccccc12` [Bedaquiline, (alpha S, beta R)-6-bromo-alpha-[2-(dimethylamino)ethyl]-2-methoxy-alpha-1-naphthalenyl-beta-phenyl-3-quinolineethanol] showed an MBC (Mycobacterium avium) of 1 µg/mL (≈ 1.8 µM), an MIC (Mycobacterium avium) of 0.015 µg/mL (≈ 0.027 µM) and an MIC (Mycobacterium avium; read-out: MIC) of 0.007 µg/mL (≈ 0.0126 µM). The MIC (Mycobacterium xenopi) was over 2 µg/mL, the MIC [1] was under 0.1 µg/mL and the MIC (M. kansasii) was 0.003 µg/mL (≈ 0.0054 µM). For the same molecule, the MIC (M. smegmatis; Mycolicibacterium smegmatis, n=7, read-out: MIC Median) was 0.007 µg/mL (≈ 0.0126 µM), the MIC range (M. smegmatis; n=7) was 0.003 to 0.10 µg/mL and the MIC (M. marinum) was 0.003 µg/mL (≈ 0.0054 µM). For the same molecule, the MIC (M. ulcerans; 1 isolate of M. ulcerans, read-out: MIC) was 0.5 µg/mL (≈ 0.9 µM), the MIC (M. ulcerans; M. ulcerans, n=1, read-out: MIC Median) was 0.5 µg/mL (≈ 0.9 µM) and the MBC (Mycobacterium simiae) was 1 µg/mL (≈ 1.8 µM). The MIC (Mycobacterium simiae) was 0.015 µg/mL (≈ 0.027 µM), the MIC (Mycobacterium simiae; read-out: MIC) was 0.03 µg/mL (≈ 0.054 µM) and the “improvement of bioavailability with food” value [2] was “approximately 2 fold”. The MIC (Mycobacterium marinum) was 0.015 µg/mL (≈ 0.027 µM), the MBC (Mycobacterium marinum; M. marinum clinical isolate (×1)) was 2 µg/mL (≈ 3.6 µM) and the MIC (M. fortuitum; Mycolicibacterium fortuitum, n=5, read-out: MIC Median) was 0.01 µg/mL (≈ 0.018 µM). The MIC range (M. fortuitum; n=5) was 0.007 to 0.010 µg/mL, the MIC (Mycobacterium kansasii) was 0.015 µg/mL (≈ 0.027 µM) and the MIC (M. bovis) was 0.003 µg/mL (≈ 0.0054 µM). For the same molecule, the MBC (Mycobacterium chimaera) was 1 µg/mL (≈ 1.8 µM), the MIC (Mycobacterium chimaera) was 0.015 µg/mL (≈ 0.027 µM) and the MIC (Mycobacterium chimaera; read-out: MIC) was 0.007 µg/mL (≈ 0.0126 µM). For the same molecule, the MIC (M. abscessus; 1 isolate of M. abscessus, read-out: MIC) was 0.25 µg/mL (≈ 0.45 µM), the MIC (M. abscessus; M. abscessus, n=1, read-out: MIC Median) was 0.25 µg/mL (≈ 0.45 µM) and the bactericidal activity [3] was “bactericidal activity for the majority of clinical isolates tested”. It also gave an MBC [4] of 2 µg/mL (≈ 3.6 µM), an MIC [4] of 0.015 µg/mL (≈ 0.027 µM) and an MIC ([4]; read-out: MIC) of 0.007 µg/mL (≈ 0.0126 µM). It also gave an MIC ([5]; Mycobacterium avium, n=7, read-out: MIC Median) of 0.01 µg/mL (≈ 0.018 µM) and an MIC range ([5]; n=7) of 0.007 to 0.010 µg/mL.
